Test results taken from ChEMBL document CHEMBL1275576, “In vitro activity of tomopenem (CS-023/RO4908463) against anaerobic bacteria” (Antimicrob Agents Chemother, 2009).

Tests used:
[1] = test system: Streptococcus intermedius; assay: Antimicrobial activity against Streptococcus intermedius ATCC 27335 by agar dilution method in presence of 5% laked sheep blood; format: functional
Parvimonas micra = assay: Antimicrobial activity against Parvimonas micra VPI 5464-1 by agar dilution method in presence of 5% laked sheep blood; format: functional
Lacticaseibacillus casei = assay: Antimicrobial activity against Lactobacillus casei subsp. casei JCM 1134 by agar dilution method in presence of 5% laked sheep blood; format: functional
[2] = Antimicrobial activity against Parabacteroides distasonis ATCC 8503 by agar dilution method in presence of 5% laked sheep blood; format: functional
[3] = test system: Staphylococcus saccharolyticus; assay: Antimicrobial activity against Staphylococcus saccharolyticus ATCC 14953 by agar dilution method in presence of 5% laked sheep blood; format: functional
Bacteroides fragilis [4] = assay: Antimicrobial activity against carbapenemase-producing Bacteroides fragilis GAI 30144 by agar dilution method in presence of 5% laked sheep blood; format: functional
Prevotella denticola = assay: Antimicrobial activity against Prevotella denticola GAI 5490 by agar dilution method in presence of 5% laked sheep blood; format: functional
Capnocytophaga ochracea = assay: Antimicrobial activity against Capnocytophaga ochracea GAI 5586 by agar dilution method in presence of 5% laked sheep blood; format: functional
Prevotella intermedia = assay: Antimicrobial activity against Prevotella intermedia ATCC 25611 by agar dilution method in presence of 5% laked sheep blood; format: functional
Thomasclavelia ramosa = assay: Antimicrobial activity against Clostridium ramosum ATCC 25582 by agar dilution method in presence of 5% laked sheep blood; format: functional
[5] = test system: Limosilactobacillus reuteri; assay: Antimicrobial activity against Lactobacillus reuteri JCM 1112 by agar dilution method in presence of 5% laked sheep blood; format: functional
Prevotella bivia = assay: Antimicrobial activity against Prevotella bivia ATCC 29303 by agar dilution method in presence of 5% laked sheep blood; format: functional; settings: DSM 20514
[6] = test system: Bacteroides thetaiotaomicron; assay: Antimicrobial activity against Bacteroides thetaiotaomicron ATCC 29741 by agar dilution method in presence of 5% laked sheep blood; format: functional
[7] = test system: Enterocloster clostridioformis; assay: Antimicrobial activity against Clostridium clostridioforme NCTC 11224 by agar dilution method in presence of 5% laked sheep blood; format: functional
Prevotella corporis = assay: Antimicrobial activity against Prevotella corporis GAI 91000 by agar dilution method in presence of 5% laked sheep blood; format: functional
Prevotella oris = assay: Antimicrobial activity against Prevotella oris ATCC 33573 by agar dilution method in presence of 5% laked sheep blood; format: functional; settings: Segatella oris
Clostridium septicum = assay: Antimicrobial activity against Clostridium septicum ATCC 12464 by agar dilution method in presence of 5% laked sheep blood; format: functional
Schaalia odontolytica = assay: Antimicrobial activity against Actinomyces odontolyticus GAI 91002 by agar dilution method in presence of 5% laked sheep blood; format: functional
Bifidobacterium bifidum = assay: Antimicrobial activity against Bifidobacterium bifidum JCM 1255 by agar dilution method in presence of 5% laked sheep blood; format: functional
Lactobacillus salivarius = assay: Antimicrobial activity against Lactobacillus salivarius subsp. salivarius JCM 1231 by agar dilution method in presence of 5% laked sheep blood; format: functional; settings: Ligilactobacillus salivarius
[8] = test system: Desulfovibrio desulfuricans; assay: Antimicrobial activity against Desulfovibrio desulfuricans ATCC 29577 by agar dilution method in presence of 5% laked sheep blood; format: functional
Gemella morbillorum = assay: Antimicrobial activity against Gemella morbillorum ATCC 27824 by agar dilution method in presence of 5% laked sheep blood; format: functional
Bifidobacterium breve = assay: Antimicrobial activity against Bifidobacterium breve ATCC 15700 by agar dilution method in presence of 5% laked sheep blood; format: functional
[9] = test system: Fusobacterium necrophorum; assay: Antimicrobial activity against Fusobacterium necrophorum ATCC 25286 by agar dilution method in presence of 5% laked sheep blood; format: functional
[10] = test system: Lactiplantibacillus plantarum; assay: Antimicrobial activity against Lactobacillus plantarum JCM 1149 by agar dilution method in presence of 5% laked sheep blood; format: functional
[11] = test system: Lactobacillus acidophilus; assay: Antimicrobial activity against Lactobacillus acidophilus JCM 1132 by agar dilution method in presence of 5% laked sheep blood; format: functional
[12] = test system: Streptococcus constellatus; assay: Antimicrobial activity against Streptococcus constellatus ATCC 27923 by agar dilution method in presence of 5% laked sheep blood; format: functional
Bacteroides ovatus = assay: Antimicrobial activity against Bacteroides ovatus ATCC 8483 by agar dilution method in presence of 5% laked sheep blood; format: functional
Campylobacter gracilis = assay: Antimicrobial activity against Campylobacter gracilis JCM 8538 by agar dilution method in presence of 5% laked sheep blood; format: functional
[13] = Antimicrobial activity against Bifidobacterium longum subsp. longum ATCC 15707 by agar dilution method in presence of 5% laked sheep blood; format: functional
[14] = test system: Campylobacter ureolyticus; assay: Antimicrobial activity against Bacteroides ureolyticus NCTC 10941 by agar dilution method in presence of 5% laked sheep blood; format: functional
Bilophila wadsworthia = assay: Antimicrobial activity against Bilophila wadsworthia WAL 7959 by agar dilution method in presence of 5% laked sheep blood; format: functional
Fusobacterium varium = assay: Antimicrobial activity against Fusobacterium varium ATCC 8501 by agar dilution method in presence of 5% laked sheep blood; format: functional
Clostridioides difficile = assay: Antimicrobial activity against Clostridium difficile GAI 10029 by agar dilution method in presence of 5% laked sheep blood; format: functional
Cutibacterium acnes = assay: Antimicrobial activity against Propionibacterium acnes ATCC 11828 by agar dilution method in presence of 5% laked sheep blood; format: functional
Veillonella parvula = assay: Antimicrobial activity against Veillonella parvula ATCC 10790 by agar dilution method in presence of 5% laked sheep blood; format: functional
Eggerthella lenta = assay: Antimicrobial activity against Eggerthella lenta ATCC 25559 by agar dilution method in presence of 5% laked sheep blood; format: functional
Bacteroides uniformis = assay: Antimicrobial activity against Bacteroides uniformis ATCC 8492 by agar dilution method in presence of 5% laked sheep blood; format: functional
[15] = Antimicrobial activity against Desulfovibrio piger DSM 749 by agar dilution method in presence of 5% laked sheep blood; format: functional, Desulfovibrio piger ATCC 29098
Hoylesella oralis = assay: Antimicrobial activity against Prevotella oralis ATCC 33269 by agar dilution method in presence of 5% laked sheep blood; format: functional
Bacteroides fragilis [16] = assay: Antimicrobial activity against Bacteroides fragilis NCTC 10581 by agar dilution method in presence of 5% laked sheep blood; format: functional
Bacteroides fragilis [17] = assay: Antimicrobial activity against Bacteroides fragilis GAI 7955 by agar dilution method in presence of 5% laked sheep blood; format: functional
Bacteroides fragilis [18] = assay: Antimicrobial activity against Bacteroides fragilis GAI 10150 by agar dilution method in presence of 5% laked sheep blood; format: functional
[19] = test system: Bacteroides eggerthii DSM 20697; assay: Antimicrobial activity against Bacteroides eggerthii ATCC 27754 by agar dilution method in presence of 5% laked sheep blood; format: functional
[20] = test system: Bacteroides heparinolyticus; assay: Antimicrobial activity against Prevotella heparinolytica ATCC 35895 by agar dilution method in presence of 5% laked sheep blood; format: functional
Bacteroides fragilis [21] = assay: Antimicrobial activity against Bacteroides fragilis GAI 0558 by agar dilution method in presence of 5% laked sheep blood; format: functional
[22] = test system: Propionibacterium granulosum; assay: Antimicrobial activity against Propionibacterium granulosum ATCC 25564 by agar dilution method in presence of 5% laked sheep blood; format: functional; settings: Cutibacterium granulosum

## C[C@@H](O)[C@H]1C(=O)N2C(C(=O)O)=C(S[C@@H]3CN[C@H](CNS(N)(=O)=O)C3)[C@H](C)[C@H]12 [DORIPENEM]
[1]
  MIC: 0.125 µg/mL
Parvimonas micra
  MIC: 0.125 µg/mL
Lacticaseibacillus casei
  MIC: 1 µg/mL
[2]
  MIC: 0.5 µg/mL
[3]
  MIC: 0.06 µg/mL
Bacteroides fragilis [4]
  MIC: > 128 µg/mL
Prevotella denticola
  MIC: 0.06 µg/mL
Capnocytophaga ochracea
  MIC: 0.125 µg/mL
Prevotella intermedia
  MIC: 0.06 µg/mL
Thomasclavelia ramosa
  MIC: 1 µg/mL
[5]
  MIC: 0.125 µg/mL
Prevotella bivia
  MIC: 0.5 µg/mL
[6]
  MIC: 0.5 µg/mL
[7]
  MIC: 0.25 µg/mL
Prevotella corporis
  MIC: 0.125 µg/mL
Prevotella oris
  MIC: 0.125 µg/mL
Clostridium septicum
  MIC: 0.06 µg/mL
Schaalia odontolytica
  MIC: 0.25 µg/mL
Bifidobacterium bifidum
  MIC: 0.125 µg/mL
Lactobacillus salivarius
  MIC: 0.5 µg/mL
[8]
  MIC: 0.125 µg/mL
Gemella morbillorum
  MIC: ≤ 0.015 µg/mL
Bifidobacterium breve
  MIC: 1 µg/mL
[9]
  MIC: ≤ 0.015 µg/mL
[10]
  MIC: 0.125 µg/mL
[11]
  MIC: 0.125 µg/mL
[12]
  MIC: 0.5 µg/mL
Bacteroides ovatus
  MIC: 0.5 µg/mL
Campylobacter gracilis
  MIC: 0.125 µg/mL
[13]
  MIC: 1 µg/mL
[14]
  MIC: 0.06 µg/mL
Bilophila wadsworthia
  MIC: 0.06 µg/mL
Fusobacterium varium
  MIC: 0.5 µg/mL
Clostridioides difficile
  MIC: 4 µg/mL
Cutibacterium acnes
  MIC: 1 µg/mL
Veillonella parvula
  MIC: 0.06 µg/mL
Eggerthella lenta
  MIC: 0.25 µg/mL
Bacteroides uniformis
  MIC: 0.25 µg/mL
[15]
  MIC: 0.06 µg/mL
Hoylesella oralis
  MIC: 0.06 µg/mL
Bacteroides fragilis [16]
  MIC: 0.5 µg/mL
Bacteroides fragilis [17]
  MIC: 2 µg/mL
Bacteroides fragilis [18]
  MIC: 2 µg/mL
[19]
  MIC: 0.25 µg/mL
[20]
  MIC: 0.06 µg/mL
Bacteroides fragilis [21]
  MIC: 0.5 µg/mL
[22]
  MIC: 0.5 µg/mL

## C[C@@H](O)[C@H]1C(=O)N2C(C(=O)O)=C(S[C@@H]3CN[C@H](C(=O)N(C)C)C3)[C@H](C)[C@H]12 [MEROPENEM]
[1]
  MIC: 0.25 µg/mL
Parvimonas micra
  MIC: 0.125 µg/mL
Lacticaseibacillus casei
  MIC: 2 µg/mL
[2]
  MIC: 0.125 µg/mL
[3]
  MIC: 0.125 µg/mL
Bacteroides fragilis [4]
  MIC: > 128 µg/mL
Prevotella denticola
  MIC: 0.06 µg/mL
Capnocytophaga ochracea
  MIC: 0.03 µg/mL
Prevotella intermedia
  MIC: 0.06 µg/mL
Thomasclavelia ramosa
  MIC: 1 µg/mL
[5]
  MIC: 0.5 µg/mL
Prevotella bivia
  MIC: 0.25 µg/mL
[6]
  MIC: 0.25 µg/mL
[7]
  MIC: 0.25 µg/mL
Prevotella corporis
  MIC: 0.03 µg/mL
Prevotella oris
  MIC: 0.06 µg/mL
Clostridium septicum
  MIC: 0.06 µg/mL
Schaalia odontolytica
  MIC: 0.5 µg/mL
Bifidobacterium bifidum
  MIC: 0.06 µg/mL
Lactobacillus salivarius
  MIC: 1 µg/mL
[8]
  MIC: 0.125 µg/mL
Gemella morbillorum
  MIC: ≤ 0.015 µg/mL
Bifidobacterium breve
  MIC: 1 µg/mL
[9]
  MIC: ≤ 0.015 µg/mL
[10]
  MIC: 0.25 µg/mL
[11]
  MIC: 0.25 µg/mL
[12]
  MIC: 0.05 µg/mL
Bacteroides ovatus
  MIC: 0.25 µg/mL
Campylobacter gracilis
  MIC: 0.06 µg/mL
[13]
  MIC: 0.5 µg/mL
[14]
  MIC: ≤ 0.015 µg/mL
Bilophila wadsworthia
  MIC: 0.03 µg/mL
Fusobacterium varium
  MIC: 0.25 µg/mL
Clostridioides difficile
  MIC: 4 µg/mL
Cutibacterium acnes
  MIC: 2 µg/mL
Veillonella parvula
  MIC: 0.03 µg/mL
Eggerthella lenta
  MIC: 1 µg/mL
Bacteroides uniformis
  MIC: 0.125 µg/mL
[15]
  MIC: 0.03 µg/mL
Hoylesella oralis
  MIC: 0.03 µg/mL
Bacteroides fragilis [16]
  MIC: 0.25 µg/mL
Bacteroides fragilis [17]
  MIC: 2 µg/mL
Bacteroides fragilis [18]
  MIC: 2 µg/mL
[19]
  MIC: 0.125 µg/mL
[20]
  MIC: 0.06 µg/mL
Bacteroides fragilis [21]
  MIC: 0.05 µg/mL
[22]
  MIC: 1 µg/mL

## Cc1ncc([N+](=O)[O-])n1CCO [METRONIDAZOLE]
[1]
  MIC: > 128 µg/mL
Parvimonas micra
  MIC: 1 µg/mL
Lacticaseibacillus casei
  MIC: > 128 µg/mL
[2]
  MIC: 1 µg/mL
[3]
  MIC: > 128 µg/mL
Bacteroides fragilis [4]
  MIC: 1 µg/mL
Prevotella denticola
  MIC: 0.25 µg/mL
Capnocytophaga ochracea
  MIC: 1 µg/mL
Prevotella intermedia
  MIC: 1 µg/mL
Thomasclavelia ramosa
  MIC: 2 µg/mL
[5]
  MIC: > 128 µg/mL
Prevotella bivia
  MIC: 2 µg/mL
[6]
  MIC: 1 µg/mL
[7]
  MIC: ≤ 0.015 µg/mL
Prevotella corporis
  MIC: 0.125 µg/mL
Prevotella oris
  MIC: 0.25 µg/mL
Clostridium septicum
  MIC: 1 µg/mL
Schaalia odontolytica
  MIC: 16 µg/mL
Bifidobacterium bifidum
  MIC: 4 µg/mL
Lactobacillus salivarius
  MIC: > 128 µg/mL
[8]
  MIC: 0.06 µg/mL
Gemella morbillorum
  MIC: > 128 µg/mL
Bifidobacterium breve
  MIC: 16 µg/mL
[9]
  MIC: 0.125 µg/mL
[10]
  MIC: > 128 µg/mL
[11]
  MIC: > 128 µg/mL
[12]
  MIC: > 128 µg/mL
Bacteroides ovatus
  MIC: 2 µg/mL
Campylobacter gracilis
  MIC: 0.5 µg/mL
[13]
  MIC: 8 µg/mL
[14]
  MIC: 2 µg/mL
Bilophila wadsworthia
  MIC: 0.06 µg/mL
Fusobacterium varium
  MIC: 0.25 µg/mL
Clostridioides difficile
  MIC: 0.5 µg/mL
Cutibacterium acnes
  MIC: > 128 µg/mL
Veillonella parvula
  MIC: 2 µg/mL
Eggerthella lenta
  MIC: 0.5 µg/mL
Bacteroides uniformis
  MIC: 0.5 µg/mL
[15]
  MIC: 0.25 µg/mL
Hoylesella oralis
  MIC: 0.125 µg/mL
Bacteroides fragilis [16]
  MIC: 1 µg/mL
Bacteroides fragilis [17]
  MIC: 0.25 µg/mL
Bacteroides fragilis [18]
  MIC: 1 µg/mL
[19]
  MIC: 0.5 µg/mL
[20]
  MIC: 0.06 µg/mL
Bacteroides fragilis [21]
  MIC: 0.5 µg/mL
[22]
  MIC: > 128 µg/mL
